From patent US11466020B2, “Compounds and compositions for inhibition and elimination of Zika infection and uses for same” (Cornell University, priority 2017, dated 2022)
Structures can show the parent of a compound that is named as a salt.

System: ZIKV (MR766 strain)
Assay: qRT-PCR of total ZIKV vRNA in supernatant of hNPC cultures
Assay type: cell-based, Zika virus
Conditions: 72 h after infection
Experimental: (A) Scheme of high content chemical screen. (B) Chemical structure of hit compounds. (C) Inhibitory curve and IC50 of HH or AQ on hNPCs (n=6). (D-H) Immunocytochemistry analysis (D), the quantification of the infection rate (E), the quantification of proliferation rate (F), the quantification of cell apoptosis rate (G) and the normalized cell viability (H) of hNPCs at 72 h after ZIKV (MR 766 strain) infection with or without drug treatment. Scale bars, 100 μm. The ZIKV infection rate is defined as the percentage of ZIKV E^+ cells. The proliferation rate is defined as the percentages of Ki67^+ cells. The cell apoptosis rate was defined as the percentage of cleaved-Caspase 3/CAS3^+ cells. The normalized cell viability was calculated by dividing the total cell number of each condition by the total cell number under mock infection conditions. (n=6). […] (K) Quantification of ZIKV infectious particles produced by ZIKV-infected hNPCs with or without compound treatment by the Vero cell reinfection assay. […] (M and N) Immunocytochemistry analysis (M) and quantification of the infection rate (N) of hNPCs at 72 h after ZIKV (PRVABC59 strain) infection with or without drug treatment (n=6). Scale bars, 100 μm. p values were calculated by one-way repeated measures ANOVA with a Bonferroni test for multiple comparisons. *p<0.05, **p<0.01 and ***p<0.001. […]

In the case of `CCN(CC)Cc1cc(Nc2ccnc3cc(Cl)ccc23)ccc1O` [AQ, amodiaquine dihydrochloride dihydrate], the “production of ZIKV viral RNA (vRNA), qRT-PCR” value is reported as “significantly suppressed”.
For `CN1CCC2=C[C@H](O)[C@H]3OC(=O)c4cc5c(cc4[C@H]3[C@@H]21)OCO5` [HH, hippeastrine hydrobromide], the “production of ZIKV viral RNA (vRNA), qRT-PCR” value was “significantly suppressed”.
